A value given as a limit tells only on which side of the number the result lay.

In this experiment the test system is influenza virus (influenza A/Kitakyusyu/159/93(H3N2)). The class given is biochemical.
silver(I) iodide returned an HA titer of 64.

The molecule `[I-].[I-].[Pt+2]` [PLATINUM(II) IODIDE, platinum(II) iodide] returned an HA titer of under 2.

Molecule `N#C[S-].[Cu+]` [COPPER(I) THIOCYANATE, copper(I) thiocyanate] had an HA titer of 2.

As for `[Cu+].[I-]` [COPPER(I) IODIDE, copper(I) iodide], the HA titer came out at 16.

In turn, `[I][Pd][I]` [PALLADIUM(II) IODIDE, palladium(II) iodide] came in with an HA titer of 4.

The values above are taken from US10744351B2 (priority 2009, dated 2020).
